Results taken from US11420958B2, “Aryl and heteroaryl substituted indole compounds” (BRISTOL-MYERS SQUIBB COMPANY, priority 2017, dated 2022).
pIC50: −log10 of the molar value.

What was measured:
Type in all cases: cell-based
human TLR8 = human TLR8 (Homo sapiens (Human), UniProt Q9NR97); assay: TLR8 inhibition reporter assay (HEK-Blue, SEAP); conditions: HEK-Blue cells overexpressing human TLR8, R848 15.9 μM stimulation
Outline: (§1)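 Percent inhibition of agonist-induced SEAP secretion was scored against DMSO-only and reference-inhibitor controls. Stimulation lasted 22 h at 37 °C following 30 min compound pre-exposure (0.05 nM–50 μM); ligands were gardiquimod 7.5 μM, R848 15.9 μM and ODN2006 5 nM for TLR7, 8 and 9.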

human TLR7 = human TLR7 (Homo sapiens (Human), UniProt Q9NYK1); assay: TLR7 inhibition reporter assay (HEK-Blue, SEAP); conditions: HEK-Blue cells overexpressing human TLR7, gardiquimod 7.5 μM stimulation
Outline: as §1

human TLR9 = human TLR9 (Homo sapiens (Human), UniProt Q9NR96); assay: TLR9 inhibition reporter assay (HEK-Blue, SEAP); conditions: HEK-Blue cells overexpressing human TLR9, ODN2006 5 nM stimulation
Outline: as §1

Sequence of human TLR7 (Q9NYK1 27-1049): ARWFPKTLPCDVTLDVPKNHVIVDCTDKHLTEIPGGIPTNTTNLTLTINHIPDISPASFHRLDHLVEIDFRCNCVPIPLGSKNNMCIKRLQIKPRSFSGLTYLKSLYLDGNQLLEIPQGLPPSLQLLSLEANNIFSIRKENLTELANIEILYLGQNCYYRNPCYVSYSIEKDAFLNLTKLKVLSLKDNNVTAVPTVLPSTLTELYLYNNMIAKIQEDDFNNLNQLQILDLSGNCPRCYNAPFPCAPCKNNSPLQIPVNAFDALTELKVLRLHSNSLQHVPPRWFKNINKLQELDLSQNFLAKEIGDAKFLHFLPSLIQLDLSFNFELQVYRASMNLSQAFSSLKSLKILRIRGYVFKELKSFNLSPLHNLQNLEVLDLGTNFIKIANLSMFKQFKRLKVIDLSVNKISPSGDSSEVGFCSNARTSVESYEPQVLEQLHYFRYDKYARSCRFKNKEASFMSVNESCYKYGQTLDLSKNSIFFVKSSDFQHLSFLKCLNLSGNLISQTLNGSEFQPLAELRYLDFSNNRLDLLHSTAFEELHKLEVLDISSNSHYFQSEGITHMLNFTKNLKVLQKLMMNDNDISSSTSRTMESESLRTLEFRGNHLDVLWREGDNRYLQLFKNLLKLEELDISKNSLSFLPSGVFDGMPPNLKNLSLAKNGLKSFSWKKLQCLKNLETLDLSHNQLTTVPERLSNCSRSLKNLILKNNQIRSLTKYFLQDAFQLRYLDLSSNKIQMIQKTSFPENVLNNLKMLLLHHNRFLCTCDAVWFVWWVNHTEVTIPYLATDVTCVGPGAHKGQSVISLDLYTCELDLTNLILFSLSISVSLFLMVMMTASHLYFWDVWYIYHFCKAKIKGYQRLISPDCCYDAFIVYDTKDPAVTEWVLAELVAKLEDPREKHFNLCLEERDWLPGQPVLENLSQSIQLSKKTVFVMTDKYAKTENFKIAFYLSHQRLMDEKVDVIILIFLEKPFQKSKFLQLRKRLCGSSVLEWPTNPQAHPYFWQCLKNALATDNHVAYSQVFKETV
Sequence of human TLR8 (Q9NR97 27-1041): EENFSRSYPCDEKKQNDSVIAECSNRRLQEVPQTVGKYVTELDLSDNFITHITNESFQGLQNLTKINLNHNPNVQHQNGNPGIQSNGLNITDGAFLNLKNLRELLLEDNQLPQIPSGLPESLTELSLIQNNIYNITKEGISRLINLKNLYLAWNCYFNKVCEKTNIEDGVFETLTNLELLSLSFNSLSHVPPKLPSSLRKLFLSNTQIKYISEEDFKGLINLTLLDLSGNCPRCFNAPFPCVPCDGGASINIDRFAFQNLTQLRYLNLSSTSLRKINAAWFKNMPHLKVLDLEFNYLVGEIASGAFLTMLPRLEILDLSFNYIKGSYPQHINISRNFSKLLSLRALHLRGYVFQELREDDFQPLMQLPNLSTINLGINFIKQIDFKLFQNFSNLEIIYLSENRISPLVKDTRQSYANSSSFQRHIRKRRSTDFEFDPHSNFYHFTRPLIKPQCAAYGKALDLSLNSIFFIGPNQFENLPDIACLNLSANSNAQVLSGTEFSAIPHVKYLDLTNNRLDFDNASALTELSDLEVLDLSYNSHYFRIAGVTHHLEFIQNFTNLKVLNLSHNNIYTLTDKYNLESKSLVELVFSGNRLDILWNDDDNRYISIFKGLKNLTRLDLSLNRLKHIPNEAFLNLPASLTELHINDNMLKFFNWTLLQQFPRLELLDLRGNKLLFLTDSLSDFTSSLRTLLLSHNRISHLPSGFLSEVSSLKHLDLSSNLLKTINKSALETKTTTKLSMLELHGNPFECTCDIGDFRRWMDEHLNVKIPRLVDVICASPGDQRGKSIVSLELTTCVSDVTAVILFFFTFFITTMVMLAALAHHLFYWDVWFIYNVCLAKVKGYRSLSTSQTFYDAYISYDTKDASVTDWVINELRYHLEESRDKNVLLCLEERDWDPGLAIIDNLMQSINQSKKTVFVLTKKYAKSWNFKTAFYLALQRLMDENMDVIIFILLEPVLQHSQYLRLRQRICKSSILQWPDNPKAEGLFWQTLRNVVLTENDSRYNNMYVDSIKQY
Sequence of human TLR9 (Q9NR96 26-1032): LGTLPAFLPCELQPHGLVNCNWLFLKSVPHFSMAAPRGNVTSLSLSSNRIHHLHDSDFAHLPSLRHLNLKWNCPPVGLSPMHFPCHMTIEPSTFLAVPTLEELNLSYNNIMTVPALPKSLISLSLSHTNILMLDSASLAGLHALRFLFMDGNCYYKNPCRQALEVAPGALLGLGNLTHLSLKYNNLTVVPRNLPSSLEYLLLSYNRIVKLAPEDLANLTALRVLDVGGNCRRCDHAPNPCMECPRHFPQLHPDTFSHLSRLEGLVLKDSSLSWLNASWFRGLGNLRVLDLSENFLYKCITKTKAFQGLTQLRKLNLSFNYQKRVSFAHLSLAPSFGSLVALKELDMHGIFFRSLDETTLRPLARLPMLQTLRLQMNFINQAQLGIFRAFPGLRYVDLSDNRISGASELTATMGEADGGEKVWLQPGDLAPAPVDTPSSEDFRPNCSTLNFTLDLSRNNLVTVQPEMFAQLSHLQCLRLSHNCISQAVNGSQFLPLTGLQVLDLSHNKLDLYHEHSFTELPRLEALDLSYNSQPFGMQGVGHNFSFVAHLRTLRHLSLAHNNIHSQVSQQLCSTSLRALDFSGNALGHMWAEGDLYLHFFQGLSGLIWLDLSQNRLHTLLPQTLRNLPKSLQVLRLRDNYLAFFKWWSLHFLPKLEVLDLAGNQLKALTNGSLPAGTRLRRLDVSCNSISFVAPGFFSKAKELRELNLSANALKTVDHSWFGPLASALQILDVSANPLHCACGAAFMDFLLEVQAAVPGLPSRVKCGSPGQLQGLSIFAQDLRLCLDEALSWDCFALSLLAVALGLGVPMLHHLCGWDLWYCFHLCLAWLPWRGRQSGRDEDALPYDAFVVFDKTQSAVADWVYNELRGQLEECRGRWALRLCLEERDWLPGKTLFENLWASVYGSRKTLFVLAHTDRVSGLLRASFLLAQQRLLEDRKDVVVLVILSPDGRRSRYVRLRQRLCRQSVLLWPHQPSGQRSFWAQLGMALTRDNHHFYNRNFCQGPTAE

pIC50 (human TLR8) | pIC50 (human TLR7) | pIC50 (human TLR9) | Compound
7.34 | 7.19 | 4.48 | Cc1cc(-c2[nH]c3ccc(-c4cc5c(s4)CN(C(=O)C[C@H](C)O)CC5)cc3c2C(C)C)cc(C)n1 [Example 351, (S)-1-(2-(2-(2,6-dimethylpyridin-4-yl)-3-isopropyl-1H-indol-5-yl)-4,7-dihydrothieno[2,3-c]pyridin-6(5H)-yl)-3-hydroxybutan-1-one]
7.57 | 6.72 | < 4.30 | Cc1cc(-c2[nH]c3ccc(-c4nnc(Cn5ccnc5)o4)cc3c2C(C)C)ccn1 [Example 141, 2-((1H-imidazol-1-yl)methyl)-5-(3-isopropyl-2-(2-methylpyridin-4-yl)-1H-indol-5-yl)-1,3,4-oxadiazole]
7.80 | 7.64 | 5.66 | CNC(=O)CN1CCc2cc(-c3ccc4[nH]c(-c5cc(C)nc(C)c5)c(C(C)C)c4c3)sc2C1 [Example 330, 2-(2-(2-(2,6-dimethylpyridin-4-yl)-3-isopropyl-1H-indol-5-yl)-4,7-dihydrothieno[2,3-c]pyridin-6(5H)-yl)-N-methylacetamide]
7.96 | 7.44 | 6.58 | COc1ccc(-c2[nH]c3ccc(-c4nnc(C5CCN(C6CCN(C(C)C)CC6)CC5)o4)cc3c2C(C)C)cc1OC [Example 22, 2-(2-(3,4-dimethoxyphenyl)-3-isopropyl-1H-indol-5-yl)-5-(1′-isopropyl-[1,4′-bipiperidin]-4-yl)-1,3,4-oxadiazole]
8.01 | 7.17 | 4.40 | CNc1ccc(-c2ccc3[nH]c(-c4ccnc(C)c4)c(C(C)C)c3c2)cn1 [Example 293, 5-(3-isopropyl-2-(2-methylpyridin-4-yl)-1H-indol-5-yl)-N-methylpyridin-2-amine]
8.02 | 7.92 | 6.25 | Cc1cc(-c2[nH]c3ccc(-c4nc(C(=O)NCCCN5CCCC5)co4)cc3c2C(C)C)cc(C)n1 [Example 284, 2-(2-(2,6-dimethylpyridin-4-yl)-3-isopropyl-1H-indol-5-yl)-N-(3-(pyrrolidin-1-yl)propyl)oxazole-4-carboxamide]
7.85 | 7.08 | 5.78 | Cc1cc(-c2[nH]c3ccc(-c4ccc(NC(=O)[C@H]5CCNC5)nc4)cc3c2C(C)C)ccn1 [Example 207, (S)—N-(5-(3-isopropyl-2-(2-methylpyridin-4-yl)-1H-indol-5-yl)pyridin-2-yl)pyrrolidine-3-carboxamide]
7.43 | 6.62 | 5.87 | CCc1c(-c2ccnc(C)c2)[nH]c2ccc(-c3noc(CCC4CCN(C(C)C)CC4)n3)cc12 [Example 449, 3-(3-ethyl-2-(2-methylpyridin-4-yl)-1H-indol-5-yl)-5-(2-(1-isopropylpiperidin-4-yl)ethyl)-1,2,4-oxadiazole]
6.42 | 5.65 | < 4.30 | CC(C)c1c(-c2ccnc3[nH]ncc23)[nH]c2ccc(-c3nnc(CNCC#N)o3)cc12 [Example 150, 2-(((5-(3-isopropyl-2-(1H-pyrazolo[3,4-b]pyridin-4-yl)-1H-indol-5-yl)-1,3,4-oxadiazol-2-yl)methyl)amino)acetonitrile]
7.26 | 6.38 | 5.14 | COc1ccc(-c2[nH]c3ccc(-c4cccc(C(=O)NCCN5CCOCC5)c4)cc3c2CC(F)(F)F)cc1OC [Example 29, 3-(2-(3,4-dimethoxyphenyl)-3-(2,2,2-trifluoroethyl)-1H-indol-5-yl)-N-(2-morpholinoethyl)benzamide]
7.25 | 6.08 | 5.84 | COc1ccc(-c2[nH]c3ccc(-c4ccnc(N5CCN(C6CCCC6)CC5)c4)cc3c2C(C)C)cc1OC [Example 426, 5-(2-(4-cyclopentylpiperazin-1-yl)pyridin-4-yl)-2-(3,4-dimethoxyphenyl)-3-isopropyl-1H-indole]
7.36 | 6.48 | 6.23 | CC(C)c1c(-c2ccnc3[nH]ncc23)[nH]c2ccc(-c3nnc(CC4CCCNC4)o3)cc12 (stereo not drawn) [Example 182, 2-(3-isopropyl-2-(1H-pyrazolo[3,4-b]pyridin-4-yl)-1H-indol-5-yl)-5-(piperidin-3-ylmethyl)-1,3,4-oxadiazole]
7.77 | 7.42 | 5.47 | Cc1cc(-c2[nH]c3ccc(-c4nc(C(=O)NC5CCCNC5)co4)cc3c2C(C)C)cc(C)n1 (stereo not drawn) [Example 290, 2-(2-(2,6-dimethylpyridin-4-yl)-3-isopropyl-1H-indol-5-yl)-N-(piperidin-3-yl)oxazole-4-carboxamide]
6.47 | 6.05 | 5.32 | COc1ccc(-c2[nH]c3ccc(-c4ccc(C5=CC(C)(C)NC(C)(C)C5)cc4)cc3c2C(C)C)cc1OC [Example 377, 2-(3,4-dimethoxyphenyl)-3-isopropyl-5-(4-(2,2,6,6-tetramethyl-1,2,3,6-tetrahydropyridin-4-yl)phenyl)-1H-indole]
7.31 | 6.84 | 4.69 | Cc1cc(-c2[nH]c3ccc(-c4cc5c(s4)CN(C(=O)C4CC(=O)N(C)C4)CC5)cc3c2C(C)C)cc(C)n1 (stereo not drawn) [Example 352, 4-(2-(2-(2,6-dimethylpyridin-4-yl)-3-isopropyl-1H-indol-5-yl)-4,5,6,7-tetrahydrothieno[2,3-c]pyridine-6-carbonyl)-1-methylpyrrolidin-2-one]
8.39 | 6.81 | 5.72 | CC(C)c1c(-c2ccnc3[nH]ncc23)[nH]c2ccc(-c3noc([C@@H]4CCCNC4)n3)cc12 [Example 462, (R)-3-(3-isopropyl-2-(1H-pyrazolo[3,4-b]pyridin-4-yl)-1H-indol-5-yl)-5-(piperidin-3-yl)-1,2,4-oxadiazole]
8.57 | 8.01 | 6.35 | Cc1cc(-c2[nH]c3ccc(-c4ccc(NC(=O)CN(C)C)nc4)cc3c2C(C)C)cc(C)n1 [Example 238, 2-(dimethylamino)-N-(5-(2-(2,6-dimethylpyridin-4-yl)-3-isopropyl-1H-indol-5-yl)pyridin-2-yl)acetamide]
7.57 | 7.89 | 4.34 | Cc1cc(-c2[nH]c3ccc(-c4ccc(CO)nc4)cc3c2C(C)C)cc(C)n1 [Example 322, (5-(2-(2,6-dimethylpyridin-4-yl)-3-isopropyl-1H-indol-5-yl)pyridin-2-yl)methanol]
8.85 | 7.59 | 6.27 | Cc1cc(-c2[nH]c3ccc(-c4nnc(CC5CCCCN5)o4)cc3c2C(C)C)ccn1 (stereo not drawn) [Example 138, 2-(3-isopropyl-2-(2-methylpyridin-4-yl)-1H-indol-5-yl)-5-(piperidin-2-ylmethyl)-1,3,4-oxadiazole]
7.96 | 6.92 | 5.83 | Cc1cc(-c2[nH]c3ccc(-c4ccnc(N5CCN(C(C)C)CC5)c4)cc3c2C(C)C)ccn1 [Example 299, 3-isopropyl-5-(2-(4-isopropylpiperazin-1-yl)pyridin-4-yl)-2-(2-methylpyridin-4-yl)-1H-indole]
8.14 | 7.03 | 5.17 | COc1ccc(-c2[nH]c3ccc(-c4ncc[nH]4)cc3c2C(C)C)cc1OC [Example 165, 2-(3,4-dimethoxyphenyl)-5-(1H-imidazol-2-yl)-3-isopropyl-1H-indole]
7.44 | 6.60 | 5.14 | Cc1cc(-c2[nH]c3ccc(-c4nnc(CCCCN)o4)cc3c2C(C)C)ccn1 [Example 264, 4-(5-(3-isopropyl-2-(2-methylpyridin-4-yl)-1H-indol-5-yl)-1,3,4-oxadiazol-2-yl)butan-1-amine]
8.05 | 7.72 | 5.88 | Cc1cc(-c2[nH]c3ccc(-c4cc5c(s4)CN(CC(=O)N(C)C)CC5)cc3c2C(C)C)cc(C)n1 [Example 342, 2-(2-(2-(2,6-dimethylpyridin-4-yl)-3-isopropyl-1H-indol-5-yl)-4,7-dihydrothieno[2,3-c]pyridin-6(5H)-yl)-N,N-dimethylacetamide]
8.05 | 7.62 | 6.42 | Cc1cc(-c2[nH]c3ccc(-c4ccnc(C5CCN(C(C)C)CC5)c4)cc3c2C(C)C)ccn1 [Example 272, 3-isopropyl-5-(2-(1-isopropylpiperidin-4-yl)pyridin-4-yl)-2-(2-methylpyridin-4-yl)-1H-indole]
7.36 | 5.57 | 4.32 | CNCc1nnc(-c2ccc3[nH]c(-c4ccnc5n[nH]cc45)c(C(C)C)c3c2)o1 [Example 132, 1-(5-(3-isopropyl-2-(2H-pyrazolo[3,4-b]pyridin-4-yl)-1H-indol-5-yl)-1,3,4-oxadiazol-2-yl)-N-methylmethanamine]
8.49 | 7.96 | 6.02 | Cc1cc(-c2[nH]c3ccc(-c4nnc([C@@H]5CCCNC5)o4)cc3c2C(C)C)cc(C)n1 [Example 232, (R)-2-(2-(2,6-dimethylpyridin-4-yl)-3-isopropyl-1H-indol-5-yl)-5-(piperidin-3-yl)-1,3,4-oxadiazole]

Compound | pIC50 (human TLR8) | pIC50 (human TLR7) | pIC50 (human TLR9)
CCc1c(-c2ccc(OC)c(OC)c2)[nH]c2ccc(-c3noc([C@H]4C[C@H]5CC[C@@H](C4)N5)n3)cc12 [Example 452, 5-((1R,3r,5S)-8-azabicyclo[3.2.1]octan-3-yl)-3-(2-(3,4-dimethoxyphenyl)-3-ethyl-1H-indol-5-yl)-1,2,4-oxadiazole] | 7.28 | 6.55 | 5.71
Cc1cc(-c2[nH]c3ccc(-c4nnc(C5CN6CCC5CC6)o4)cc3c2C(C)C)cc(C)n1 (stereo not drawn) [Example 250, 2-(2-(2,6-dimethylpyridin-4-yl)-3-isopropyl-1H-indol-5-yl)-5-(quinuclidin-3-yl)-1,3,4-oxadiazole] | 8.68 | 8.47 | 6.95
